Measurements: patent US8288394B2, “1-(1H-1,2,4-triazol-1-yl)butan-2-ol derivative for pharmaceutical use, and the use of a 1-(1H-1,2,4-triazol-1-yl)butan-2-ol derivative with substantially undefined crystal shape for preparing said 1-(1H-1,2,4-triazol-1-yl)butan-2-ol derivative” (Medichem, S.A., priority 2009, dated 2012)

What was measured:
Type in all cases: physicochemical
[1] = Particle size distribution, laser diffraction (Malvern Mastersizer S, wet); conditions: for Particle Size Distribution D10 / Particle Size Distribution D50 / Particle Size Distribution D90: by volume, mean of six; for D[3,2] (Sauter diameter, DMVS): mean diameter by surface area to volume; for Particle Size Distribution D[4,3]: mean diameter by volume
From the text: The particle size parameters measured in the present invention have been obtained by means of laser light diffraction technique, and specifically by means of a Malvern Mastersizer S particle size analyzer having characteristics as set out below. Namely, the laser source used was a 2 milliwatt Helium/neon laser (633 nm wavelength); the detection system was a Fourier Transform lens system; the sample was run using a 2.40 mm lens; the sample unit was a sample unit for wet measurement, and particularly was a MS1-Small volume Sample Dispersion Unit stirred cell. The wet dispersion was prepared by using deionized water as a dispersant, and the dispersion was controlled by stirring the unit cell. […] The characterization parameters (volume distributions) were measured for at least six times for each sample, and the result is a mean of said measured values for each sample.
The sample was run using the 2.40 mm lens. The sample unit was a MS1-Small Volume Sample Dispersion Unit stirred cell. The dispersant was deionized water. The sample particle size distribution was assumed to follow a normal distribution.
Analysis model: polydisperse. Setup presentation: 3_WATERF. Particle R.I.=(1.6800, 0.01). Dispersant R.I.=1.33.
This sample was sonicated for 2 minutes and delivered dropwise to the previously background and corrected measuring cell filled with dispersant (deionized water) until the obscuration reached the desired level. Volume distributions were obtained for at least six measures. For characterization, the values of D10, D50 and D90 (by volume), D[4,3] (mean diameter by volume) and D[3,2] (mean diameter by surface area to volume, or Sauter diameter) were specifically listed, each one being the mean of the six values available for each characterization parameter.
The notation DX [also written as D(v, 0.X)] means that X % of the particles have a diameter less than a specified diameter D. Thus a D90 [or D(v, 0.9)] of 100 μm means that 90% of the particles have a diameter less than 100 μm.

[2] = BET specific surface area (Micromeritics Gemini V, N2 at 77 K); conditions: N2 adsorption at 77 K
From the text: The specific surface area values disclosed in the present invention have been obtained by means of a specific surface area analysis technique based on the BET (Brunauer, Emmett and Teller) theory, which is a well-accepted theory known in the art for the calculation of surface areas of solids by means of measuring their physical adsorption of gas molecules (See S. Brunauer, P. H. Emmett and E. Teller, J. Am. Chem. Soc., 1938, 60, 309). In particular, the specific surface area values measured in the present invention have been calculated from the BET surface area plot obtained by measuring the quantity of nitrogen gas molecules adsorbed by a weighted amount of solid at different relative pressures (P/P0) within the range 0.05-0.3, at 77 K. Precisely, the measurement of the adsorption of gas molecules was carried out by means of a Micromeritics™ Gemini V equipment having the characteristics as set out below. Namely, the gas used for adsorption measure was nitrogen gas. […] The sample for analysis was degassed (at 30° C. for 10 minutes and at 80° C. for one hour). The determination of the adsorption of nitrogen was measured at 77 K and for twelve relative pressures sufficiently dispersed within in the range of 0.05 to 0.3. (i.e. twelve absolute pressures in the range of 38.425 mmHg to 230.000 mmHg relative to a saturated pressure of 764,480 mmHg).
The sample for analysis was degassed at 30° C. for 10 minutes and at 80° C. for one hour.

[3] = Sphericity factor calculated from density, Sauter diameter and specific surface area
From the text: Flowability affects the ease with which the material is handled during processing into a pharmaceutical product. When the flowability is poor, problems occur with handling and processing during formulation. It is known that the shape of a particle affects its handling and flow properties. However, quantification of particle shape is extremely difficult for irregular and/or micronized particles. One of the most common ways of expressing the degree of irregularity of the particles is by means of the sphericity factor (ΨW), which is generally defined as the ratio between the surface area of a sphere having the same volume as the particle and the surface area of the particle:
[formula] where dv and ds are the equivalent volume and surface diameter, respectively (Part. Part. Syst. Charact. 1996, 13, 368-373).
Because sphericity factors are not calculated for each particle but for an assembly of particles, they have to be based on an average size. Thus, the sphericity factor will then be given by the following equation:
[formula] where SW is the powder specific surface area, ρ is the particle density and DMVS is the surface area mean diameter, also referred to as the mean volume-surface diameter, the Sauter diameter or D[3,2]. The Sauter diameter is defined as the diameter of a sphere that has the same volume/surface area ratio as the particle of interest.
A sphericity factor of 1.0 describes a perfect sphere with the greatest ease of flow (Encapsulated and powdered foods, CRC Press 2005). […] In this regard, sphericity factor values below 0.2 are usually found for low-flowability solids in form of platelets or needles. Therefore, a sphericity factor greater than 0.2 generally indicates an acceptable flowing material.

[4] = Particle density by pycnometry; conditions: pycnometry at 25° C., n-heptane, mean of three
Procedure: The particle density experimental values were obtained by means of a pycnometer, specifically a 50 mL glass pycnometer. The measurements were carried out under technical characteristics as set out below. Namely, the determinations were done at 25° C.; the liquid of reference was n-heptane; the measurements were carried out three times, and the result is the mean of said measured values.

[5] = calculated using the reported crystal density value
[6] = calculated using the measured particle density value
[7] = listed as prior art micronized voriconazole

Row | Structure (SMILES) | Particle Size Distribution D10 [1] [μm] | Particle Size Distribution D50 [1] [μm] | Particle Size Distribution D90 [1] [μm] | D[3,2] (Sauter diameter, DMVS) [1] [μm] | Particle Size Distribution D[4,3] [1] [μm] | Specific Surface Area (BET), Sw [2] [m^2/g] | sphericity factor Ψw [3, 5] | Density (experimental particle density ρ) [4] [g/mL] | sphericity factor Ψw [3, 6] | D[3,2] (Sauter diameter, DMVS) [1, 7] | Density (experimental particle density ρ) [4, 7]
1 | C[C@@H](c1ncncc1F)[C@](O)(Cn1cncn1)c1ccc(F)cc1F [Example 7, voriconazole] | 7.5 | 25.3 | 57.4 | 14.3 | 24.9 | 1.1032 | 0.26 | – | – | – | –
2 | C[C@@H](c1ncncc1F)[C@](O)(Cn1cncn1)c1ccc(F)cc1F [Example 6, voriconazole] | 8.6 | 33.4 | 92.3 | 17.2 | 43.3 | 0.9769 | 0.23 | 1.40 | 0.25 | – | –
3 | C[C@@H](c1ncncc1F)[C@](O)(Cn1cncn1)c1ccc(F)cc1F [Comparative Example 2, voriconazole, reference compound] | – | 15.2 | – | 8.3 | 28.7 | – | – | 1.40 | – | about 8.3 μm | about 1.400 g/cm^3
4 | C[C@@H](c1ncncc1F)[C@](O)(Cn1cncn1)c1ccc(F)cc1F [Example 8, voriconazole] | 2.5 | 7.3 | 29.9 | 5.2 | 14.2 | 1.5910 | 0.50 | – | – | – | –
5 | C[C@@H](c1ncncc1F)[C@](O)(Cn1cncn1)c1ccc(F)cc1F [Example 5, voriconazole] | 7.6 | 32.3 | 92.7 | 15.8 | 42.8 | 1.1451 | 0.23 | 1.37 | 0.24 | – | –
6 | C[C@@H](c1ncncc1F)[C@](O)(Cn1cncn1)c1ccc(F)cc1F [Example 2, voriconazole] | 7.4 | 29.7 | 102.8 | 15.4 | 44.5 | 0.9319 | 0.29 | 1.35 | 0.31 | – | –
7 | C[C@@H](c1ncncc1F)[C@](O)(Cn1cncn1)c1ccc(F)cc1F [Example 3, voriconazole] | 6.0 | 21.7 | 56.2 | 12.2 | 27.3 | 1.0997 | 0.31 | 1.33 | 0.34 | – | –
8 | C[C@@H](c1ncncc1F)[C@](O)(Cn1cncn1)c1ccc(F)cc1F [Example 4, voriconazole] | 6.0 | 22.4 | 64.0 | 12.3 | 30.3 | 1.0992 | 0.31 | 1.32 | 0.34 | – | –
